Reference: patent US10981926B2 (Janssen Pharmaceutica NV, priority 2016, dated 2021)

Columns and labels:
[1] = molecular target: T1, wild-type Androgen Receptor (AR-wt) (Homo sapiens (Human), UniProt P10275); test: LNCaP-AR-wt ANT reporter assay (antagonist mode); assay type: cell-based; settings: for IC50: read-out: LNCaP-AR-wt ANT pIC50 (converted); for Emax: maximum % inhibition of R1881 control response over the tested concentration range, read-out: LNCaP-AR-wt ANT MAX % Inh
[2] = molecular target: T1, wild-type Androgen Receptor (AR-wt); test: LNCaP-AR-wt AG reporter assay (agonist mode); assay type: cell-based; settings: for EC50: agonist mode, pEC50 = −Log10(EC50 in Molar), read-out: LNCaP-AR-wt AG pEC50 (converted); for Emax: maximum % stimulation (agonist response) over the tested concentration range, read-out: LNCaP-AR-wt AG MAX % Stim
[3] = molecular target: T2, F876L mutant Androgen Receptor (AR-F876L) (Homo sapiens (Human), UniProt P10275, F877L); test: LNCaP-AR-F876L ANT reporter assay (antagonist mode); assay type: cell-based; settings: for IC50: read-out: LNCaP-AR-F876L ANT pIC50 (converted); for Emax: maximum % inhibition of R1881 control response over the tested concentration range, read-out: LNCaP-AR-F876L ANT MAX % Inh
[4] = molecular target: T2, F876L mutant Androgen Receptor (AR-F876L); test: LNCaP-AR-F876L AG reporter assay (agonist mode); assay type: cell-based; settings: for EC50: agonist mode, pEC50 = −Log10(EC50 in Molar), read-out: LNCaP-AR-F876L AG pEC50 (converted); for Emax: maximum % stimulation (agonist response) over the tested concentration range, read-out: LNCaP-AR-F876L AG MAX % Stim
rGABA-gated Cl− channel = test: GABA-Gated Cl Channel Antagonist Radioligand Binding Assay; parameters: species or system rat; settings: 10 μM single point, [35S]-TBPS, cerebral cortex membrane homogenates
Protocol: GABA-gated C1 Chanel assays were performed at CEREP according to the following method. Membrane homogenates of cerebral cortex (120 μg protein) were incubated for 120 min at 22° C. with 3 nM […] in the absence or presence of the test compound in a buffer containing 50 mM Na2HPO4/KH2PO4 (pH 7.4) and 500 mM NaCl. Nonspecific binding was determined in the presence of 20 μM picrotoxinin. Following incubation, the samples were filtered rapidly under vacuum through glass fiber filters (GF/B, Packard) presoaked with 0.3% PEI and rinsed several times with ice-cold 50 mM Tris-HCl using a 96-sample cell harvester (Unifilter, Packard). The filters were dried then counted for radioactivity in a scintillation counter (Topcount, Packard) using a scintillation cocktail (Microscint 0, Packard). The results are expressed as a percent inhibition of the control radio ligand specific binding. The standard reference compound is picrotoxinin, which was tested in each experiment at several concentrations to obtain a competition curve from which its IC50 was calculated. In this assay, the following representative compounds disclosed herein had recorded activities at a 10 μM single point concentration in the GABA-gated Cl— Channel Binding Assay.

[5] = antagonist mode, pIC50 = −Log10(IC50 in Molar)

T2 sequence (P10275 whole entry F877L): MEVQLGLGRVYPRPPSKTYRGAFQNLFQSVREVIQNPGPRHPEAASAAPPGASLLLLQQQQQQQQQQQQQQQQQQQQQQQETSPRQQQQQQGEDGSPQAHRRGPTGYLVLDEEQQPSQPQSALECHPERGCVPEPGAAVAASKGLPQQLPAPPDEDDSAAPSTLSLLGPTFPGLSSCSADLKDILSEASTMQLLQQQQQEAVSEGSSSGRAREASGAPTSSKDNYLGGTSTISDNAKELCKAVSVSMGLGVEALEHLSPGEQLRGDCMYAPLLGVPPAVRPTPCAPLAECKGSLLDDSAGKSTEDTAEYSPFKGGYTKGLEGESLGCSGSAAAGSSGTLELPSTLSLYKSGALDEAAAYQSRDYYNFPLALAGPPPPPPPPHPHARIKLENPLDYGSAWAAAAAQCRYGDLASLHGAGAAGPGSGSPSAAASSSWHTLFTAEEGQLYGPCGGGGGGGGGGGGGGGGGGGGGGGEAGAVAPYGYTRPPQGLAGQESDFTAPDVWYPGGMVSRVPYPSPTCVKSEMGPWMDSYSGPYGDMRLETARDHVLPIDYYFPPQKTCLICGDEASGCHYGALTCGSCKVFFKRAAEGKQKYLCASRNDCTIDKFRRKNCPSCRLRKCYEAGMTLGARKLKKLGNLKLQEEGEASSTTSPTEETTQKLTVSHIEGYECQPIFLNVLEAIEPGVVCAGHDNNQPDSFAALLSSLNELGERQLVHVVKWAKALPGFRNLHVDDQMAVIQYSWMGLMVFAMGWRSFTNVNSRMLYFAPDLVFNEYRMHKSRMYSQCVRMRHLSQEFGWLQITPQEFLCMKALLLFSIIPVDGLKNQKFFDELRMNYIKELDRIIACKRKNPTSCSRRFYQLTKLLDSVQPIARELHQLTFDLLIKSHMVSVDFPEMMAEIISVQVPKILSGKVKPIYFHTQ
T1 sequence (P10275 whole entry): as the sequence (P10275 whole entry F877L) above, with L877F counted along it

SMILES	IC50 [1, 5]	Emax [1]	EC50 [2]	Emax [2]	IC50 [3, 5]	Emax [3]	EC50 [4]	Emax [4]	rGABA-gated Cl− channel % inh @10 μM (rGABA-gated Cl− channel)	LNCaP-AR-wt ANT pIC50 [1, 5]	LNCaP-AR-F876L ANT pIC50 [3, 5]
CC(C)CCN1CCC(Oc2ccc(N3C(=S)N(c4cnc(C#N)c(Cl)c4)C(=O)C34CCC4)cn2)CC1 [Cpd 149, 3-chloro-5-[8-[6-[(1-isopentyl-4-piperidyl)oxy]-3-pyridyl]-5-oxo-7-thioxo-6,8-diazaspiro[3.4]octan-6-yl]pyridine-2-carbonitrile]	81.3 nM	99.8%	> 15100 nM	0.5%	105 nM	97.9%	> 15100 nM	1.5%	35.4%		
N#CCN1CCC(Oc2ccc(N3C(=S)N(c4cnc(C#N)c(C(F)(F)F)c4)C(=O)C34CCC4)cc2)CC1 [Cpd 39, 5-[8-[4-[[1-(cyanomethyl)-4-piperidyl]oxy]phenyl]-5-oxo-7-thioxo-6,8-diazaspiro[3.4]octan-6-yl]-3-(trifluoromethyl)pyridine-2-carbonitrile]	676 nM	100%	> 15100 nM	0.9%	245 nM	101%	> 15100 nM	-0.1%	86.2%		
COCCN1CCC(Oc2ccc(N3C(=S)N(c4cnc(C#N)c(C)c4)C(=O)C34CCC4)cn2)CC1 [Cpd 98, 5-[8-[6-[[1-(2-methoxyethyl)-4-piperidyl]oxy]-3-pyridyl]-5-oxo-7-thioxo-6,8-diazaspiro[3.4]octan-6-yl]-3-methyl-pyridine-2-carbonitrile]	46.8 nM	101%	> 15100 nM	0.3%	20.9 nM	100%	> 15100 nM	0.1%	−7.6%		
COc1cc(N2C(=O)C3(CCC3)N(c3ccc(OC4CCNCC4)cc3)C2=S)cnc1C#N [Cpd 154, 3-methoxy-5-[5-oxo-8-[4-(4-piperidyloxy)phenyl]-7-thioxo-6,8-diazaspiro[3.4]octan-6-yl]pyridine-2-carbonitrile]	468 nM	102%	> 15100 nM	-0.1%	269 nM	100%	> 15100 nM	-0.1%	−22.2%		
CNC1CCC(Oc2ccc(N3C(=S)N(c4cnc(C#N)c(C(F)(F)F)c4)C(=O)C34CCC4)cc2)CC1 (stereo not drawn) [Cpd 80, 5-[8-[4-[4-(methylamino)cyclohexoxy]phenyl]-5-oxo-7-thioxo-6,8-diazaspiro[3.4]octan-6-yl]-3-(trifluoromethyl)pyridine-2-carbonitrile]	25.1 nM	102%	> 15100 nM	0.6%	11.2 nM	100%	> 15100 nM	0.1%	33.7%		
COC(=O)CN1CCC(Oc2ccc(N3C(=S)N(c4cnc(C#N)c(C(F)(F)F)c4)C(=O)C34CCC4)cc2)CC1 [Cpd 33, methyl 2-[4-[4-[6-[6-cyano-5-(trifluoromethyl)-3-pyridyl]-5-oxo-7-thioxo-6,8-diazaspiro[3.4]octan-8-yl]phenoxy]-1-piperidyl]acetate]	708 nM	98.9%	> 15100 nM	0.2%	389 nM	98.2%	> 15100 nM	2.8%	99.2%		
CN1CCC(Oc2ccc(N3C(=S)N(c4cnc(C#N)c(C(F)(F)F)c4)C(=O)C34CCC4)cn2)CC1 [Cpd 1, 5-[8-[6-[(1-methyl-4-piperidyl)oxy]-3-pyridyl]-5-oxo-7-thioxo-6,8-diazaspiro[3.4]octan-6-yl]-3-(trifluoromethyl)pyridine-2-carbonitrile]		101%	> 15100 nM	-0.1%		101%	> 15100 nM	0.1%	6.3%	6.94	7.07
